Consider 13 compounds from PubChem BioAssay (NCI).

Each structure is given as a SMILES string.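 Compound exposure: 48 hours, 5 concentrations, 96-well plates. TGI: total growth inhibition.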 Bounds are passed on as bounds.

Among the test systems are A498 renal; HS 578T breast; COLO 205 colon; UACC-62 melanoma; HCT-15 colon; MOLT-4 leukemia; CCRF-CEM leukemia; HL-60(TB) leukemia; MDA-MB-435; HOP-62 NSCLC; SF-295 CNS; SR leukemia.
Holding throughout (assay): NCI anticancer screen, dose series, 48 h

`CC1(Cc2cc3c(cc2C2(c4ccc([N+](=O)[O-])cc4)OCCO2)OCO3)OCCO1`: the TGI in the test on A498 renal, with HS 578T breast, with COLO 205 colon, in the test with UACC-62 melanoma, with HCT-15 colon and in the test on MOLT-4 leukemia was over 100 µM in each case. Moreover, the TGI with CCRF-CEM leukemia, in the test with HL-60(TB) leukemia, with MDA-MB-435, with HOP-62 NSCLC and with SF-295 CNS was over 100 µM each time.

For the compound `CC(C)=CC[C@H]1C[C@@]2(CC=C(C)C)C(=O)/C(=C(/O)c3ccccc3)C(=O)[C@](CC=C(C)C)(C2=O)C1(C)C`, the TGI is 26.3 µM with A498 renal; 59.6 µM in the test on HS 578T breast; over 100 µM in the test on SR leukemia; 13.6 µM in the test on UACC-62 melanoma; 26.5 µM with HCT-15 colon; over 100 µM with MOLT-4 leukemia. For the same compound, the values for the TGI with MDA-MB-435, in the test on HOP-62 NSCLC and in the test with SF-295 CNS were 26.2 µM, 29.3 µM and 17.8 µM, respectively.

Turning to `CCN(CC)c1ccc2cc(-c3csc(C)n3)c(=O)oc2c1`, the TGI is 67.5 µM with HS 578T breast; over 100 µM with SR leukemia; over 100 µM with COLO 205 colon; over 100 µM in the test with UACC-62 melanoma; over 100 µM in the test on HCT-15 colon; over 100 µM with MOLT-4 leukemia. Also, the TGI with CCRF-CEM leukemia is over 100 µM; in the test on HL-60(TB) leukemia it was over 100 µM; with MDA-MB-435, over 100 µM; in the test on HOP-62 NSCLC, 94.6 µM; with SF-295 CNS, over 100 µM.

`CC[C@H]1C=CCC[C@@]2(C[C@@H]3CC[C@H]4[C@@H](C(=O)OCCCCCCCCCCCCCCCC(=O)N(CCCNC(C)=O)C[C@H](CCNC(C)=O)OC(C)=O)[C@@]5(CCC[C@@H](C)O5)NC(=[N+]34)N2)O1`: the TGI in the test on A498 renal came out at 3.27 µM; in the test with HS 578T breast, 4.83 µM; with SR leukemia it was 3.35 µM; in the test on COLO 205 colon, 2.67 µM; in the test on UACC-62 melanoma, 3.52 µM; with HCT-15 colon it was 3.17 µM. Also, the TGI was found to be 2.99 µM with MOLT-4 leukemia; 2.91 µM with HL-60(TB) leukemia; 3 µM with MDA-MB-435; 3.42 µM in the test with HOP-62 NSCLC; 3.32 µM in the test with SF-295 CNS.

With `CCOC(=O)C(C)c1nc2cc(C(F)(F)F)ccc2[nH]c1=O` (stereo not given), the TGI in the test with A498 renal, in the test on HS 578T breast, in the test on COLO 205 colon, with UACC-62 melanoma, in the test on HCT-15 colon and in the test with MOLT-4 leukemia was over 100 µM each time. The TGI in the test with CCRF-CEM leukemia, in the test on HL-60(TB) leukemia, with MDA-MB-435, in the test with HOP-62 NSCLC and in the test with SF-295 CNS was over 100 µM in each case.

Consider `CC(C)(C)OC(=O)NC(Cc1ccc(OCc2ccccc2)cn1)C(=O)O` (stereo not given), for which the TGI in the test with A498 renal, with HS 578T breast, in the test on SR leukemia, with COLO 205 colon, in the test on HCT-15 colon and in the test on HL-60(TB) leukemia was over 100 µM in each case. For the same compound, the TGI with MDA-MB-435, in the test on HOP-62 NSCLC and in the test with SF-295 CNS was over 100 µM throughout.

For the compound `O=C1/C(=C/c2ccc(OC(=O)c3ccc(Cl)cc3)cc2)CCC/C1=C\c1ccc(OC(=O)c2ccc(Cl)cc2)cc1`, the TGI in the test with HS 578T breast, with SR leukemia, with COLO 205 colon, in the test on UACC-62 melanoma, in the test with HCT-15 colon and with MOLT-4 leukemia was over 100 µM each time. Further, the TGI in the test with CCRF-CEM leukemia, with HL-60(TB) leukemia, in the test on MDA-MB-435 and in the test on HOP-62 NSCLC was over 100 µM each time.

Turning to `CC1(C)N([O-])[N+](=O)C1(Br)c1ccccc1` (stereo not given), the TGI in the test with HS 578T breast, in the test on SR leukemia, with COLO 205 colon, in the test with UACC-62 melanoma, with HCT-15 colon and with MOLT-4 leukemia was over 100 µM in each case. Moreover, the TGI with CCRF-CEM leukemia, in the test with HL-60(TB) leukemia, in the test on MDA-MB-435, in the test on HOP-62 NSCLC and in the test with SF-295 CNS was over 100 µM throughout.

With `O=S1(=O)c2ccccc2-c2nccc3ccnc1c23`, the TGI in the test with A498 renal was 84.4 µM; with HS 578T breast, over 100 µM; in the test on COLO 205 colon it was 65.8 µM; with UACC-62 melanoma, 31.7 µM; with MOLT-4 leukemia, 6.87 µM; in the test with CCRF-CEM leukemia, over 100 µM. Besides, the TGI in the test with HL-60(TB) leukemia, in the test with MDA-MB-435, in the test on HOP-62 NSCLC and in the test on SF-295 CNS was over 100 µM throughout.

Take `CCOC(=O)CNC(=O)CNC(=O)CNC(=O)CNNc1c(OCc2ccccc2)c(=O)c1=O`: the TGI with A498 renal, with HS 578T breast, in the test with COLO 205 colon, in the test on UACC-62 melanoma, with HCT-15 colon and with MOLT-4 leukemia was over 100 µM each time. Further, the TGI in the test with CCRF-CEM leukemia, in the test with MDA-MB-435 and with HOP-62 NSCLC was over 100 µM each time.

For the compound `CC(=O)c1sc2n(C)c(=O)c3ccccc3[n+]2c1C`, the TGI in the test on HS 578T breast, with SR leukemia, in the test with COLO 205 colon, in the test on UACC-62 melanoma, with HCT-15 colon and in the test with MOLT-4 leukemia was over 100 µM in each case. The TGI with CCRF-CEM leukemia, in the test on HL-60(TB) leukemia, with MDA-MB-435, with HOP-62 NSCLC and in the test with SF-295 CNS was over 100 µM in each case.

For `CCOC(=O)CON=c1c2ccccc2ccc2ccccc12`, the TGI in the test on HS 578T breast, with SR leukemia, in the test on COLO 205 colon, in the test on UACC-62 melanoma, in the test on HCT-15 colon and with MOLT-4 leukemia was over 100 µM each time. In addition, the TGI in the test on CCRF-CEM leukemia, in the test on HL-60(TB) leukemia, with MDA-MB-435, with HOP-62 NSCLC and in the test with SF-295 CNS was over 100 µM each time.

Consider `C=CC[C@@]12CCC(=O)C=C1CCCC2=O`, for which the TGI in the test with A498 renal, with HS 578T breast, with SR leukemia, with COLO 205 colon, in the test on UACC-62 melanoma and with HCT-15 colon was over 100 µM in each case. Also, the TGI in the test with MOLT-4 leukemia, in the test on HL-60(TB) leukemia, in the test on MDA-MB-435, in the test on HOP-62 NSCLC and in the test on SF-295 CNS was over 100 µM each time.
